Experimental data taken from PMC9330353 (Journal of Fungi, 2022).
“Also recorded” adds a separate entry of the source.

What was measured:
[1] = tested on: S. cerevisiae strain AD/124567 (overexpresses Pdr5p); experiment: Antifungal susceptibility test (microbroth dilution), strain AD/124567; assay type: cell-based, Saccharomyces cerevisiae; details: tested strains AD/1234567 and AD/124567, up to 100 μM
Source text: (§1) In this study, two S. cerevisiae mutant strains were used. Strain AD/124567 (genotype: MATα, PDR1-3, ura3, his1, Δyor1::hisG, Δsnq2::hisG, Δpdr10::hisG, Δpdr11::hisG, Δycf1::hisG, Δpdr3::hisG) overexpressed Pdr5p, but the genes of all other ABC transporters related to the MDR phenotype (Yor1p, Snq2p, Pdr10p, Pdr11p, and Ycf1p) were deleted. A second strain, AD/1234567, had all MDR related genes deleted, including PDR5 (genotype: MATα, PDR1-3, ura3, his1, Δyor1::hisG, Δsnq2::hisG, Δpdr5::hisG, Δpdr10::hisG, Δpdr11::hisG, Δycf1::hisG, Δpdr3::hisG). Therefore, this strain was highly sensitive to fluconazole. One fluconazole-resistant Candida albicans strain was also used in this study, namely, 95-142. This strain was isolated from the throat of a patient and identified by CHROMagar^TM and PCR. The isolate overexpressed CaCdr1p and CaCdr2p (the most important MDR transporters of C. albicans), and was kindly provided by Dr. Theodore White (University of Missouri, Kansas City, MO, USA).
The antifungal activity of the compounds was evaluated via a microbroth dilution method described by Niimi et al.. […] Culture growth was measured using a microplate reader at 600 nm (Fluostar Optima, BMG Labtech, Offenburg, Germany). […] Growth inhibition was calculated as follows: % Growth inhibition = (Absorbance of growth control − Absorbance of treated sample) × 100/Absorbance of growth control

Pdr5p [2] = target: T1, Pdr5p (Saccharomyces cerevisiae, UniProt P33302); experiment: Rhodamine 6G accumulation/efflux assay; assay type: cell-based; details: strain AD/124567 in the presence of glucose
T1 construct: endogenous in cells; host or cells: S. cerevisiae strain AD/124567 (PDR1-3; other MDR ABC transporter genes deleted)
Description: Efflux assays were performed as described by Reis de Sá et al. (2017). Briefly, AD/124567 cells in the exponential growth phase were harvested by centrifugation at 5000 rpm at room temperature for 5 min, and then washed twice with phosphate-buffered saline (PBS) (0.43 g of KH2PO4; 7.2 g of NaCl; 1.85 g of Na2HPO4; pH 7.2; 990 mL of distilled water). Cells were then resuspended in 10 mL of PBS and starved for 2 h at 4 °C. Subsequently, 10^7 cells/mL were incubated for 30 min at 30 °C with 15 μM R6G. After incubation, cells were washed twice with PBS and further incubated in the presence of the compounds, DMSO, and FK-506 (a classical inhibitor of ABC transporters) for 60 min at 30 °C. […] The supernatants were transferred to the wells of a 96-well polystyrene plate, and fluorescence was measured with a plate reader (Fluostar Optima, BMG Labtech, Offenburg, Germany) at 485 nm (excitation) and 538 nm (emission). To evaluate R6G efflux, fluorescence emitted by the dye in the extracellular milieu was measured. Thus, the fluorescence was directly related to extracellular R6G concentration, and then to Pdr5p activity. […] R6G efflux was calculated as follows: (2) % efflux = Fluorescence of treated sample × 100/Fluorescence of AD/124567 with glucose […]

strain AD/124567 [3] = experiment: Checkerboard assay with fluconazole, strain AD/124567; assay type: cell-based, Saccharomyces cerevisiae
Description: (§2) Culture growth was measured using a microplate reader at 600 nm (Fluostar Optima, BMG Labtech, Offenburg, Germany). Growth inhibition was calculated as described in Section 2.3.
(§3) FICI ≤ 0.5 points to a synergic interaction, whereas 0.5 < FICI < 4.0 and FICI > 4 indicate indifferent and antagonistic interactions, respectively.

strain AD/124567 [4] = experiment: Disk diffusion chemosensitization assay; assay type: cell-based, Saccharomyces cerevisiae; details: strain AD/124567, medium with 150 µg/mL fluconazole, 50 μg compound per disk, 48 h
Description: To evaluate the ability of the compounds in reversing the MDR phenotype of strain AD/124567, a chemosensitization assay was performed, with slight modifications. Briefly, YPD medium containing 150 µg/mL fluconazole was prepared with 1.5% agarose, and a cell suspension from AD/124567 was incorporated into molten medium (45 °C), reaching a final concentration of 2.4 × 10^6 yeasts/mL. Subsequently, 50 μg of each compound was applied to 6-milimeter Whatman 3MM® blotting paper disks (Sigma-Aldrich®, St. Louis, MO, USA), dried at 30 °C for 30 min, and placed on the solidified medium surface. The plates were incubated at 30 °C for 48 h, photographed, and the inhibition zones were measured. A fluconazole-free medium was also used to evaluate the effects of the compounds alone on yeast growth.

[5] = tested on: fluconazole-resistant Candida albicans strain 95-142; experiment: Checkerboard assay with fluconazole, strain 95-142; assay type: cell-based; details: read-out: Fluconazole MIC a (alone)
Source text: as §1, §2, §3

Pdr5p [6] = target: T1, Pdr5p; details: at 100 μg/mL; cited from earlier work
Pdr5p [7] = target: T1, Pdr5p; details: at 200 μM; cited from earlier work

T1 sequence (P33302 whole entry): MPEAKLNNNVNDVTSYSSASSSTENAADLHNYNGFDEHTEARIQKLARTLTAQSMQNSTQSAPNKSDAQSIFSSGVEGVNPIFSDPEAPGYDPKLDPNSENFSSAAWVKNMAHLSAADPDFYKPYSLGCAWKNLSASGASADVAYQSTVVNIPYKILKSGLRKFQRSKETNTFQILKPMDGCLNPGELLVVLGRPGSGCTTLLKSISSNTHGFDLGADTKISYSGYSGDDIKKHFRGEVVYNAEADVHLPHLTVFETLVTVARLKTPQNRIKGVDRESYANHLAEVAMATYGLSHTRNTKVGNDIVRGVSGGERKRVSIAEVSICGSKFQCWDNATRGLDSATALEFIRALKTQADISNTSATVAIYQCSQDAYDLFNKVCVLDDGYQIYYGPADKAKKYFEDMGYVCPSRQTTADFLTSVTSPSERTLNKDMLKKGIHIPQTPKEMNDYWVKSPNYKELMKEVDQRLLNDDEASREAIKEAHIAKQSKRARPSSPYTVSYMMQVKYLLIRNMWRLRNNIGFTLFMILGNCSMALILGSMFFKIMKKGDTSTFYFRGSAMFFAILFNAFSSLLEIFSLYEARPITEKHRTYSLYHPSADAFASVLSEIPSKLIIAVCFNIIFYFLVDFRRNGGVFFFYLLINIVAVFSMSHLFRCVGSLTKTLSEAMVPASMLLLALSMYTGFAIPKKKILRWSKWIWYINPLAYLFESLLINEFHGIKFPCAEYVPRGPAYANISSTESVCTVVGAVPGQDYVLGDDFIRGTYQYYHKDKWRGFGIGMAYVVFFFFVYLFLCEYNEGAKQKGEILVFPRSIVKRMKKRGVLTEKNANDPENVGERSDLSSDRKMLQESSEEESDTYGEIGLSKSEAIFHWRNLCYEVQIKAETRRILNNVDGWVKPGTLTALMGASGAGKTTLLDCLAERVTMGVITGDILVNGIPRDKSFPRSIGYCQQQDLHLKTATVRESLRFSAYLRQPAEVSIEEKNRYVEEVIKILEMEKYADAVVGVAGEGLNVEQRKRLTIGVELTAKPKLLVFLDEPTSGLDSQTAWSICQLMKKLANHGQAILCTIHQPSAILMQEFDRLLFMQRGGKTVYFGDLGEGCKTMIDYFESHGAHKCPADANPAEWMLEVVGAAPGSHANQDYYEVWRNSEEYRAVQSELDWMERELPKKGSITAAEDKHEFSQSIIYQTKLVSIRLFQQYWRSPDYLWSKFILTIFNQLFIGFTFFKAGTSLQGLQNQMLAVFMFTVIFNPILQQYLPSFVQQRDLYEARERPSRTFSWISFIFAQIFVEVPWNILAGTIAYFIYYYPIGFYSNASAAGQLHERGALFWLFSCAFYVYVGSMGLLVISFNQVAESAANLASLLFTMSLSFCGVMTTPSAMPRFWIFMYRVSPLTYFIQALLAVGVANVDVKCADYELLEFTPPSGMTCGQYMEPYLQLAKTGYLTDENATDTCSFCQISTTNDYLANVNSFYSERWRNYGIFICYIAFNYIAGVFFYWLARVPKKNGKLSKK

SMILES: C[C@H]1O[C@@H](O[C@H]2[C@@H](O)C[C@H](O[C@H]3[C@@H](O)C[C@H](O[C@H]4CC[C@@]5(C)[C@H](CC[C@@H]6[C@@H]5C[C@@H](O)[C@]5(C)[C@@H](C7=CC(=O)OC7)CC[C@]65O)C4)O[C@@H]3C)O[C@@H]2C)C[C@H](O)[C@@H]1O [digoxin, Digoxin]
- Antifungal activity of the compound alone [1]: neither presented antifungal activity
- Effect on R6G efflux / Pdr5p activity (qualitative) (Pdr5p [2]): unable to inhibit Pdr5p activity; also recorded: did not affect Pdr5p activity
- Interaction with fluconazole (qualitative) (strain AD/124567 [3]; S. cerevisiae, agar diffusion assay and checkerboard titration): indifferent to interaction with fluconazole

SMILES: C=CC[C@@H]1/C=C(\C)C[C@H](C)C[C@H](OC)[C@H]2O[C@@](O)(C(=O)C(=O)N3CCCC[C@H]3C(=O)O[C@H](/C(C)=C/[C@@H]3CC[C@@H](O)[C@H](OC)C3)[C@H](C)[C@@H](O)CC1=O)[C@H](C)C[C@@H]2OC [FK-506]
- Inhibition zone (strain AD/124567 [4]): 18 mm

SMILES: OC(Cn1cncn1)(Cn1cncn1)c1ccc(F)cc1F [Fluconazole]
- MIC [5]: 62.5 µg/mL
- MIC (strain AD/124567 [3]; Saccharomyces cerevisiae, strain AD/124567, 80% growth inhibition, read-out: Fluconazole MIC a (alone)): 480 µg/mL

SMILES: CC1(C)CCC2=C(O1)c1ccccc1C(=O)C2=O [Beta-lapachone]
- Inhibition of Pdr5p activity (Pdr5p [6]): 79.4%

SMILES: Nc1ncc(/C=C/CNC(=O)c2cc(Br)c(Br)[nH]2)[nH]1 [Oroidin]
- Inhibition of R6G efflux (Pdr5p [7]): 60%
